Data published in patent US12616681B2, “Compositions and methods for treating renal injury” (priority 2019, dated 2026).

Key:
[1] = tested on: mice with ischemic AKI (bilateral renal IRI); test: Renal IRI model: renal vasodilation and renal Doppler flux (RBF); assay type: in vivo, C57/BL6 mice
Description: The inner arteriolar area of the outer medulla was determined using α-smooth muscle actin (α-SMA)-stained sections. Kidneys were removed without perfusion under inhalational isoflurane anesthesia, divided into three pieces horizontally, immediately fixed in 10% formalin, and then embedded in paraffin. The inner area of α-SMA-positive vessels in the outer medulla was measured using ImageJ. The results are expressed as average areas of renal arteries in the outer medulla. As a surrogate for RBF, we used noninvasive laser Doppler flowmetry (periflux system 5000, Perimed) to measure flux, placing laser-Doppler probes at a fixed position on the kidney surface and recording renal cortical measurements. […] The relative increase represents the percent increase in RDF from baseline to peak for each test.

[2] = tested on: mice with ischemic AKI (bilateral renal IRI); test: Renal IRI (ischemic AKI) mouse model: renal function markers; assay type: in vivo, C57/BL6 mice
Description: Briefly, mice were anesthetized with isoflurane using a vaporizer, and bilateral renal arteries were clamped for 30 min (2, 49). After the ischemic time, clamps were released to induce blood reperfusion. […] Serum and kidney tissue were collected 24 h after renal IRI. […] After reperfusion for 24 h, kidney tissues (˜20 mg) were homogenized in cold PBS containing indomethacin (10 μg/mL) and then centrifuged for 10 min at 12,000 rpm. Protein concentrations of supernatant were determined by BCA assay (ThermoFisher Scientific, Rockford, IL). The PGE2 level was measured using a PGE2 ELISA kit (R&D Systems, Minneapolis, MN) in triplicate. PGE2 levels were expressed as nanograms of PGE2 per milligram of protein. Renal function was assessed by determining the serum levels of blood urea nitrogen (BUN; Abcam), serum creatinine (Agilent 6410 LC-MS/MS, Agilent, Santa Clara, CA), lipocalin-2 (R&D Systems), and kidney injury molecule-1 (KIM-1; R&D Systems) after reperfusion for 24 h. Measurement of serum creatinine was by HPLC. Serum creatinine was assessed using an Agilent 6410 LC-MS/MS system coupled with an Agilent 1200 series HPLC system (Agilent). […] The mixture was centrifuged at 13,000 rpm for 10 min after vigorous vortex, and 1 μL of supernatant was then injected into the LC-MS/MS system. The chromatography separation was performed on a Hypersil GOLD C18 column (150×2.1 mm, 3 m, Thermo Scientific) using a mobile phase of 0.1% formic acid solution and acetonitrile [70:30 (vol/vol)]. The flow rate was 0.2 mL/min. Electrospray ionization was performed in the positive ion mode. The capillary voltage was set at 4,000 V. Nitrogen as the nebulizing gas was set at 15 psi, and the drying gas temperature was set at 300° C., with a flow rate of 6 L/min. The multiple-reaction monitoring mode using specific precursor/production transition was used for quantification. […] The peak areas for all analytes were integrated automatically using Agilent Mass Hunter Analysis software (version B.01.04).

[3] = tested on: mice with ischemic AKI (bilateral renal IRI); test: Renal IRI model: PGE2 (EP1-EP4) and adenosine A2A receptor expression; assay type: in vivo, C57/BL6 mice
Description: PGE2 receptors (EP1, EP2, EP3, and EP4) and adenosineA2A receptor mRNA levels were deter-mined by real-time PCR. Their protein levels were determined by Western blot assay and immunofluorescence analysis.

[4] = tested on: mice with ischemic AKI (bilateral renal IRI); test: Renal IRI model: cAMP, AMP and adenosine levels; assay type: in vivo, C57/BL6 mice
Description: After reperfusion for 24 h, kidney tissues were harvested, homogenized in 10 volumes of 0.1 M HCl, and centrifuged for 10 min at 12,000 rpm. cAMP levels in kidney tissues and serum were measured using a cAMP Complete ELISA kit (Enzo Life Science, Farmingdale, NY). AMP and adenosine in kidney tissue were assessed by Agilent 6410 LC-MS/MS. Serum adenosine was measured using an assay kit (Abnova, Walnut, CA).

[5] = tested on: endogenous PGE2 levels in kidney tissue; test: Renal PGE2 levels after intraperitoneal injection in mice (Example 1); assay type: in vivo
Description: […] Protein concentrations of supernatant were determined by BCA assay (ThermoFisher Scientific, Rockford, IL). The PGE2 level was measured using a PGE2 ELISA kit (R&D Systems, Minneapolis, MN) in triplicate. PGE2 levels were expressed as nanograms of PGE2 per milligram of protein. Renal function was assessed by determining the serum levels of blood urea nitrogen (BUN; Abcam), serum creatinine (Agilent 6410 LC-MS/MS, Agilent, Santa Clara, CA), lipocalin-2 (R&D Systems), and kidney injury molecule-1 (KIM-1; R&D Systems) after reperfusion for 24 h. Measurement of serum creatinine was by HPLC. Serum creatinine was assessed using an Agilent 6410 LC-MS/MS system coupled with an Agilent 1200 series HPLC system (Agilent). The sample preparation for serum creatinine was that 50 μL of serum samples were mixed with 100 μL of acetonitrile that contained creatinine-d3 as an internal standard (5 μg/mL). The mixture was centrifuged at 13,000 rpm for 10 min after vigorous vortex, and 1 μL of supernatant was then injected into the LC-MS/MS system. The chromatography separation was performed on a Hypersil GOLD C18 column (150×2.1 mm, 3 m, Thermo Scientific) using a mobile phase of 0.1% formic acid solution and acetonitrile [70:30 (vol/vol)]. The flow rate was 0.2 mL/min. […] The multiple-reaction monitoring mode using specific precursor/production transition was used for quantification. […]

[6] = 24 h after renal IRI, vs IRI-vehicle mice, dosing before and after IRI
[7] = pretreatment, mRNA in kidney tissue

SMILES: CCCC[S+]([O-])c1sc2nc(-c3cccs3)cc(-c3ccccc3)c2c1N (stereo not shown) [SW033291]
- RDF-inferred RBF ([1]; 24 h following IRI): completely preserved
- renal arteriolar area in the outer medulla ([1]; 24 h post-IRI, vs post-IRI vehicle and sham mice): significantly increased
- protection from reduction of RDF-inferred RBF ([1]; single dose 1 h before IRI (Pre) vs Pre+Post): somewhat less protection
- RDF-inferred RBF ([1]; within 1 h after the first injection, just before AKI): increased inferred RBF above baseline
- BUN (serum) [2, 6]: significantly reducing
- KIM-1 (serum) [2, 6]: significantly reducing
- NGAL (serum) [2, 6]: significantly reducing
- creatinine (serum) [2, 6]: significantly reducing
- induction of NGAL, KIM-1, and creatinine ([2]; single pre-IRI dose (Pre), time course): notable protection
- adenosine A2A receptor ([3]; 24 h, vs sham and IRI mice): induced
- EP4 receptor mRNA levels ([3]; 24 h post-IRI): significantly increased
- levels of EP2 receptors ([3]; 24 h post-IRI): no effect
- levels of EP3 receptors ([3]; 24 h post-IRI): no effect
- EP4 receptor protein ([3]; 24 h post-IRI, vs vehicle-treated mice): more than twice as high
- pre-IRI levels of A2A receptors [3, 7]: increased
- pre-IRI levels of EP4 receptors [3, 7]: increased
- IRI-induced decrease of adenosine in the kidney ([4]; 24 h after IRI): reversed
- AMP in kidney tissue ([4]; 24 h post-IRI): increased levels
- serum adenosine ([4]; 24 h post-IRI): Increased
- renal cAMP ([4]; 24 h post-IRI, vs sham mice): elevated over sham mice
- endogenous renal PGE2 (peak) ([5]; 1 h after intraperitoneal 5 mg/kg): tripling
- renal PGE2 ([5]; 3 h after intraperitoneal injection of 2.5 or 5 mg/kg): dose-dependent increase
